Source: paper PMC11481871, “Discovery of GuaB inhibitors with efficacy against Acinetobacter baumannii infection” (mBio, 2024)
Converted amounts (≈) assume the structure as drawn.

How the values were obtained:
[1] = tested on: carbapenem-resistant A. baumannii clinical isolates; assay: microbe, parasite or virus in culture; type: cell-based; conditions: Acinetobacter baumannii
[2] = In vitro metabolism in mouse hepatocytes; type: in vitro ADME
Method: The incubation of G2 and G1 with cryopreserved mouse hepatocytes was conducted according to the standard in-house protocol. Cryopreserved hepatocytes were thawed using pre-warmed InVitroGRO HT thawing medium in 50 mL centrifuge tubes. The tubes were centrifuged for 3 min at 50 × g, and the supernatants were discarded. Cells were resuspended with 50 mL of pre-warmed Dulbecco’s modified eagle medium (DMEM) by gently inverting the tube several times. The tubes were centrifuged for 3 min at 50 × g, and the supernatants were discarded. Cells were brought up in 5.0 mL of pre-warmed DMEM incubation medium. The total cell counts and the number of viable cells were determined by the trypan blue exclusion method. Incubations were carried out in 20 mL scintillation vials containing 1.0 mL of hepatocyte suspension (approximately 1.3 × 10^6 cells/mL). The mouse hepatocytes were pre-incubated with or without 1 mM ABT or 4-MP for 15 min. Vials were spiked with G2 or G1 as a DMSO stock solution to a final concentration of 5 µM G2 or G1 and a final DMSO concentration of 0.1%. The scintillation vials were placed on an orbital shaker rotating at 16 rpm in a humidified incubator at 37°C, 5% CO2. The reaction was quenched with 4 mL of acetonitrile at 0 or 3 h. The hepatocyte samples were protein precipitated with 4 volumes of acetonitrile and centrifuged at 2,000 × g for 5 min. The resulting supernatant was reduced to a dry residue and reconstituted with 350 µL water:acetonitrile (2/1; vol/vol). All samples were analyzed by LC-MS/MS system.
Liquid chromatography (LC) equipment consisted of a CBM 20A Communications Module, NexeraX2 LC 30AD pumps, NexeraX2 SIL 30AC autosampler, CTO Prominence Column Oven from Shimadzu (Columbia, MD), and a 1290 Infinity DAD ultraviolet (UV) detector with a 60 mm flow cell from Agilent Technologies (Waldbronn, Germany). The LC column was an EVO C18 (1.9 µm, 2.1 × 100 mm) from Phenomenex. Mobile phase A was water with 0.1% formic acid and mobile phase B was acetonitrile with 0.1% formic acid. The flow rate was 400 µL/min and the injection volume was 10 µL. Column temperature was 40°C. Mass spectrometry was performed using a 5600 QTRAP mass spectrometer equipped with a TurboIonSpray from Applied Biosystems (Redwood City, CA). Various tandem mass spectrometry (MS/MS) functionalities were used for analysis, which included data-dependent time-of-flight (TOF) scans in a positive ion electrospray mode. The extracted ion chromatography traces were obtained following analysis of mouse hepatocyte incubations and were used to quantify the metabolites.

Row | SMILES | MIC50 [1] [µM] | MIC90 [1] [µM] | clearance in mouse hepatocytes [2] | metabolism inhibited by ABT ([2]; 1 mM ABT) [%] | metabolism inhibited by ABT and 4-MP ([2]; 1-aminobenzotriazole (ABT) and 4-methylpyrazole (4-MP)) [%]
1 | C[C@H](Nc1ccc2ncc3c(c2c1)CCOC3)C(=O)Nc1ccc(Cl)nc1 [G1, (2S)-N-(6-chloro-3-pyridyl)-2-(2,4-dihydro-1H-pyrano[3,4-c]quinolin-9 ylamino)propanamide] | 3.1 (≈ 1.19 µg/mL) | 8 (≈ 3.06 µg/mL) | high clearance | 39 | 
2 | C[C@H](Nc1ccc2ncc(CO)cc2c1)C(=O)Nc1ccc(Cl)c(N(C)C)c1 [G2, (2S)-N-[4-chloro-3-(dimethylamino)phenyl]-2-[[3-(hydroxymethyl)-6-quinolyl]amino]propanamide] | 6.25 (≈ 2.49 µg/mL) | 16 (≈ 6.38 µg/mL) | high clearance |  | 38
